Assay results as given in ChEMBL document CHEMBL3745645, “Synthesis, in vitro antitumor activity, dihydrofolate reductase inhibition, DNA intercalation and structure-activity relationship studies of 1,3,5-triazine analogues” (Bioorg Med Chem Lett, 2016).
Activity calls are given as the source filed them. The rule behind the calls is not given here.

Assays:
Type in all cases: functional
[1] = system: ACHN; experiment: Cytotoxicity against human ACHN cells at 10 uM after 48 hrs by SRB assay; conditions: read-out: GI
[2] = system: K562; experiment: Cytotoxicity against human K562 cells at 10 uM after 48 hrs by SRB assay; conditions: K562, 48 h, read-out: GI
[3] = Cytotoxicity against human HCT15 cells at 10 uM after 48 hrs by SRB assay; conditions: HCT-15, 48 h, read-out: GI
[4] = system: 786-0; experiment: Cytotoxicity against human 786-0 cells at 10 uM after 48 hrs by SRB assay; conditions: 786-0, 48 h, read-out: GI
[5] = Cytotoxicity against human UACC257 cells at 10 uM after 48 hrs by SRB assay; conditions: UACC-257, 48 h, read-out: GI
[6] = Cytotoxicity against human SF268 cells at 10 uM after 48 hrs by SRB assay; conditions: SF-268, 48 h, read-out: GI
[7] = Cytotoxicity against human COLO205 cells at 10 uM after 48 hrs by SRB assay; conditions: COLO 205, 48 h, read-out: GI
[8] = Cytotoxicity against human HCT116 cells at 10 uM after 48 hrs by SRB assay; conditions: HCT-116, 48 h, read-out: GI
[9] = Cytotoxicity against human SNB19 cells at 10 uM after 48 hrs by SRB assay; conditions: SNB-19, 48 h, read-out: GI
[10] = Cytotoxicity against human UO31 cells at 10 uM after 48 hrs by SRB assay; conditions: UO-31, 48 h, read-out: GI
[11] = system: SK-MEL-5; experiment: Cytotoxicity against human SK-MEL-5 cells at 10 uM after 48 hrs by SRB assay; conditions: SK-MEL-5, 48 h, read-out: GI
[12] = system: MCF7; experiment: Cytotoxicity against human MCF7 cells at 10 uM after 48 hrs by SRB assay; conditions: MCF7, 48 h, read-out: GI
[13] = Cytotoxicity against human SF295 cells at 10 uM after 48 hrs by SRB assay; conditions: SF-295, 48 h, read-out: GI
[14] = Cytotoxicity against human HCC2998 cells at 10 uM after 48 hrs by SRB assay; conditions: HCC 2998, 48 h, read-out: GI
[15] = system: NCI-H460; experiment: Cytotoxicity against human NCI-H460 cells at 10 uM after 48 hrs by SRB assay; conditions: NCI-H460, 48 h, read-out: GI
[16] = system: NCI-H522; experiment: Cytotoxicity against human NCI-H522 cells at 10 uM after 48 hrs by SRB assay; conditions: NCI-H522, 48 h, read-out: GI
[17] = Cytotoxicity against human RXF393 cells at 10 uM after 48 hrs by SRB assay; conditions: RXF 393, 48 h, read-out: GI
[18] = Cytotoxicity against human RPMI8226 cells at 10 uM after 48 hrs by SRB assay; conditions: RPMI-8226, 48 h, read-out: GI
[19] = Cytotoxicity against human IGROV1 cells at 10 uM after 48 hrs by SRB assay; conditions: IGROV-1, 48 h, read-out: GI
[20] = Cytotoxicity against human SNB75 cells at 10 uM after 48 hrs by SRB assay; conditions: SNB-75, 48 h, read-out: GI
[21] = system: CCRF-CEM; experiment: Cytotoxicity against human CCRF-CEM cells at 10 uM after 48 hrs by SRB assay
[22] = Cytotoxicity against human Hs 578T cells at 10 uM after 48 hrs by SRB assay; conditions: read-out: GI
[23] = system: T47D; experiment: Cytotoxicity against human T47D cells at 10 uM after 48 hrs by SRB assay; conditions: read-out: GI
[24] = Cytotoxicity against human BT549 cells at 10 uM after 48 hrs by SRB assay; conditions: BT-549, 48 h, read-out: GI
[25] = Cytotoxicity against human DU145 cells at 10 uM after 48 hrs by SRB assay; conditions: DU-145, 48 h, read-out: GI
[26] = system: SK-MEL-2; experiment: Cytotoxicity against human SK-MEL-2 cells at 10 uM after 48 hrs by SRB assay; conditions: SK-MEL-2, 48 h, read-out: GI
[27] = system: SN12C; experiment: Cytotoxicity against human SN12C cells at 10 uM after 48 hrs by SRB assay; conditions: read-out: GI
[28] = Cytotoxicity against human LOXIMVI cells at 10 uM after 48 hrs by SRB assay; conditions: LOX IMVI, read-out: GI
[29] = system: U-251; experiment: Cytotoxicity against human U251 cells at 10 uM after 48 hrs by SRB assay; conditions: U-251, 48 h, read-out: GI
[30] = system: HT-29; experiment: Cytotoxicity against human HT-29 cells at 10 uM after 48 hrs by SRB assay; conditions: HT-29, 48 h, read-out: GI
[31] = system: Malme-3M; experiment: Cytotoxicity against human MALME-3M cells at 10 uM after 48 hrs by SRB assay; conditions: read-out: GI
[32] = Cytotoxicity against human SW620 cells at 10 uM after 48 hrs by SRB assay; conditions: SW-620, 48 h, read-out: GI
[33] = Cytotoxicity against human SKOV3 cells at 10 uM after 48 hrs by SRB assay; conditions: SK-OV-3, 48 h, read-out: GI
[34] = system: MDA-MB-435; experiment: Cytotoxicity against human MDA-MB-435 cells at 10 uM after 48 hrs by SRB assay; conditions: MDA-MB-435, 48 h, read-out: GI
[35] = Cytotoxicity against human NCI-ADR-RES cells at 10 uM after 48 hrs by SRB assay; conditions: read-out: GI
[36] = system: A498; experiment: Cytotoxicity against human A498 cells at 10 uM after 48 hrs by SRB assay; conditions: A498, 48 h, read-out: GI
[37] = system: MDA-MB-468; experiment: Cytotoxicity against human MDA-MB-468 cells at 10 uM after 48 hrs by SRB assay; conditions: MDA-MB-468, 48 h, read-out: GI
[38] = system: SR; experiment: Cytotoxicity against human SR cells at 10 uM after 48 hrs by SRB assay; conditions: read-out: GI
[39] = system: CAKI-1; experiment: Cytotoxicity against human Caki1 cells at 10 uM after 48 hrs by SRB assay
[40] = Cytotoxicity against human OVCAR8 cells at 10 uM after 48 hrs by SRB assay; conditions: OVCAR-8, 48 h, read-out: GI
[41] = Cytotoxicity against human TK10 cells at 10 uM after 48 hrs by SRB assay; conditions: TK-10, 48 h, read-out: GI
[42] = Cytotoxicity against human OVCAR4 cells at 10 uM after 48 hrs by SRB assay; conditions: OVCAR-4, 48 h, read-out: GI
[43] = Cytotoxicity against human MOLT4 cells at 10 uM after 48 hrs by SRB assay; conditions: MOLT-4, 48 h, read-out: GI
[44] = Cytotoxicity against human OVCAR3 cells at 10 uM after 48 hrs by SRB assay; conditions: OVCAR-3, 48 h, read-out: GI
[45] = Cytotoxicity against human SF539 cells at 10 uM after 48 hrs by SRB assay; conditions: SF-539, 48 h, read-out: GI
[46] = system: MDA-MB-231; experiment: Cytotoxicity against human MDA-MB-231 cells at 10 uM after 48 hrs by SRB assay; conditions: MDA-MB-231, 48 h, read-out: GI
[47] = Cytotoxicity against human HL-60(TB) cells at 10 uM after 48 hrs by SRB assay; conditions: HL-60, 48 h, read-out: GI
[48] = system: KM12; experiment: Cytotoxicity against human KM12 cells at 10 uM after 48 hrs by SRB assay; conditions: KM12, 48 h, read-out: GI
[49] = Cytotoxicity against human HOP92 cells at 10 uM after 48 hrs by SRB assay; conditions: HOP-92, 48 h, read-out: GI
[50] = system: SK-MEL-28; experiment: Cytotoxicity against human SK-MEL-28 cells at 10 uM after 48 hrs by SRB assay; conditions: SK-MEL-28, 48 h, read-out: GI
[51] = system: M14; experiment: Cytotoxicity against human M14 cells at 10 uM after 48 hrs by SRB assay; conditions: M14, 48 h, read-out: GI
[52] = system: NCI-H226; experiment: Cytotoxicity against human NCI-H226 cells at 10 uM after 48 hrs by SRB assay; conditions: NCI-H226, 48 h, read-out: GI
[53] = Cytotoxicity against human HOP62 cells at 10 uM after 48 hrs by SRB assay; conditions: HOP-62, 48 h, read-out: GI
[54] = system: A549; experiment: Cytotoxicity against human A549 cells at 10 uM after 48 hrs by SRB assay; conditions: A549, 48 h, read-out: GI
[55] = system: OVCAR-5; experiment: Cytotoxicity against human OVCAR5 cells at 10 uM after 48 hrs by SRB assay

## Cc1nc2cc(Nc3nc(Nc4ccc(F)cc4)nc(-c4ccccc4)n3)ccc2n1Cc1ccccc1
[1]
  inhibition of growth at 10 µM: 23.6%
[2]
  inhibition of growth at 10 µM: 38.2%
[3]
  inhibition of growth at 10 µM: 32.4%
[4]
  inhibition of growth at 10 µM: 18.4%
[5]
  inhibition of growth at 10 µM: 18.7%
[6]
  inhibition of growth at 10 µM: 23.8%
[7]
  inhibition of growth at 10 µM: 29.5%
[8]
  inhibition of growth at 10 µM: 39.7%
[9]
  inhibition of growth at 10 µM: 31.5%
[10]
  inhibition of growth at 10 µM: 43.4%
[11]
  inhibition of growth at 10 µM: 14.5%
[12]
  inhibition of growth at 10 µM: 54.9%
[13]
  inhibition of growth at 10 µM: 17.3%
[14]
  inhibition of growth at 10 µM: 12%
[15]
  inhibition of growth at 10 µM: 16.8%
[16]
  inhibition of growth at 10 µM: 24.1%
[17]
  inhibition of growth at 10 µM: 30.9%
[18]
  inhibition of growth at 10 µM: 53%
[19]
  inhibition of growth at 10 µM: 31%
[20]
  inhibition of growth at 10 µM: 28.4%
[21]
  growth inhibition (GI): inactive
[22]
  inhibition of growth at 10 µM: 20.4%
[23]
  inhibition of growth at 10 µM: 55.5%
[24]
  inhibition of growth at 10 µM: 4.6%
[25]
  inhibition of growth at 10 µM: 2.93%
[26]
  inhibition of growth at 10 µM: 25.4%
[27]
  inhibition of growth at 10 µM: 21.9%
[28]
  inhibition of growth at 10 µM: 12.3%
[29]
  inhibition of growth at 10 µM: 36.6%
[30]
  inhibition of growth at 10 µM: 40.6%
[31]
  inhibition of growth at 10 µM: 11.4%
[32]
  inhibition of growth at 10 µM: 15.4%
[33]
  inhibition of growth at 10 µM: 1.78%
[34]
  inhibition of growth at 10 µM: 40%
[35]
  inhibition of growth at 10 µM: 29.5%
[36]
  inhibition of growth at 10 µM: 23.2%
[37]
  inhibition of growth at 10 µM: 27.6%
[38]
  inhibition of growth at 10 µM: 68.2%
[39]
  growth inhibition (GI): inactive
[40]
  inhibition of growth at 10 µM: 32.2%
[41]
  inhibition of growth at 10 µM: 0.81%
[42]
  inhibition of growth at 10 µM: 39.8%
[43]
  inhibition of growth at 10 µM: 41.8%
[44]
  inhibition of growth at 10 µM: 18.8%
[45]
  inhibition of growth at 10 µM: 0.21%
[46]
  inhibition of growth at 10 µM: 9.76%
[47]
  inhibition of growth at 10 µM: 36.3%
[48]
  inhibition of growth at 10 µM: 39.8%
[49]
  inhibition of growth at 10 µM: 35.6%
[50]
  inhibition of growth at 10 µM: 5.63%
[51]
  inhibition of growth at 10 µM: 34.1%
[52]
  inhibition of growth at 10 µM: 19.3%
[53]
  inhibition of growth at 10 µM: 5.32%
[54]
  inhibition of growth at 10 µM: 32.5%
[55]
  growth inhibition (GI): inactive
